Measurements published in patent US9242996B2 (Novartis AG, priority 2013, dated 2016).

What follows are molecules tested against activated ERK2 (Homo sapiens (Human), UniProt P28482) (assay: Activated ERK2 kinase assay, ERK2 New conditions (AlphaScreen, ERKtide phosphorylation)). Details: 0.25 nM ERK2, 200 nM ERKtide peptide, 35 μM ATP, 30 min preincubation.
Format: biochemical
Description: The assay is carried out in 50 mM HEPES [pH 7.5], 5 mM MgCl2, 1 mM DTT, 0.01% Tween-20, 0.05% BSA using 0.25 nM ERK2, 200 nM ERKtide peptide and 35 μM ATP (all concentrations are final in the reaction) in a total volume of 10.25 μL. […] Compound dilution series are prepared in 100% DMSO. ERK2 is preincubated with compounds for 30 minutes at ambient temperature. Reaction is initiated by addition of a substrate cocktail of ERKtide peptide and ATP and is allowed to proceed for 2-3 hours at ambient temperature. Reaction is terminated by addition of 10 μL of a 2× stop buffer consisting of 100 mM Tris-Cl [pH 7.5], 25 mM EDTA, 0.01% Tween 20, 10 μg/mL of AlphaScreen Protein A Acceptor Beads, 10 μg/mL of Streptavidin Donor Beads (PerkinElmer, Waltham, Mass.), and 1.4 μg/mL phospho-EGF Receptor (Thr669) antibody (Cat #3056, Cell Signaling Technology, Danvers, Mass.). Terminated reactions are read, after overnight incubation in the dark, on an EnVision Multilabel Plate Reader (PerkinElmer, Waltham, Mass.), with excitation and emission wavelengths set to 680 nm and 570 nm, respectively. IC50 values are determined using a four-parameter fit.

Chain of activated ERK2 (P28482 whole entry): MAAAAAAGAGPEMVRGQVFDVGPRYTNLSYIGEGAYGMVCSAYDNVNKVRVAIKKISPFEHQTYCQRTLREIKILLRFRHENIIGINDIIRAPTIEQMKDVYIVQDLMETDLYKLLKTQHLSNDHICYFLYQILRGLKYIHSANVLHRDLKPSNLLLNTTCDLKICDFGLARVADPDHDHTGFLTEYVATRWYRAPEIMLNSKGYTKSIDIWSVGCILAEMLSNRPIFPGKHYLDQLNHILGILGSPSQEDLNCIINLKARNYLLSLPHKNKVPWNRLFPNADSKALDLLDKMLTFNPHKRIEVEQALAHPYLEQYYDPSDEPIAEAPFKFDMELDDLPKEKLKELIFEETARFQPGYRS

| Compound | IC50 [nM] |
| --- | --- |
| Cn1cc(-c2cnc(N)c(-c3ccc(C(=O)NCc4cccc(S(C)(=O)=O)c4)c(F)c3)n2)cn1 [Example 147, 4-(3-amino-6-(1-methyl-1H-pyrazol-4-yl)pyrazin-2-yl)-2-fluoro-N-(3-(methylsulfonyl)benzyl)benzamide] | 45.4 |
| CN1CC(c2cnc(N)c(-c3ccc(C(=O)N[C@H](CO)c4cccc(Cl)c4)c(F)c3)c2)CCC1=O (stereo partly drawn) [Example 35, 4-(2-amino-5-(1-methyl-6-oxopiperidin-3-yl)pyridin-3-yl)-N—((S)-1-(3-chlorophenyl)-2-hydroxyethyl)-2-fluorobenzamide] | 1.09 |
| CCn1cc(-c2cnc(N)c(-c3ccc(C(=O)N[C@H](CO)c4ccccc4)c(F)c3)n2)cn1 [Example 217, (S)-4-(3-amino-6-(1-ethyl-1H-pyrazol-4-yl)pyrazin-2-yl)-2-fluoro-N-(2-hydroxy-1-phenylethyl) benzamide] | 1.13 |
| CC(=O)N1CCC(c2cnc(N)c(-c3ccc(C(=O)N[C@H](CO)c4ccccc4)c(F)c3)n2)CC1 [Example 60, (S)-4-(6-(1-acetylpiperidin-4-yl)-3-aminopyrazin-2-yl)-2-fluoro-N-(2-hydroxy-1-phenylethyl)benzamide] | 12.4 |
| C[C@@H](NC(=O)c1ccc(-c2cc(C3CCC(=O)N(C)C3)cnc2N)cc1F)c1cccc(Cl)c1 (stereo partly drawn) [Example 38, 4-(2-amino-5-(1-methyl-6-oxopiperidin-3-yl)pyridin-3-yl)-N—((R)-1-(3-chlorophenyl)ethyl)-2-fluorobenzamide] | 8.09 |
| COC(=O)N1CCCC(c2cnc(N)c(-c3ccc(C(=O)N[C@H](CO)c4cccc(Cl)c4)c(F)c3)n2)C1 (stereo partly drawn) [Example 216, methyl 3-(5-amino-6-(4-(((S)-1-(3-chlorophenyl)-2-hydroxyethyl)carbamoyl)-3-fluorophenyl)pyrazin-2-yl)piperidine-1-carboxylate] | 1.81 |
| CS(=O)(=O)c1cc(F)cc(CNC(=O)c2ccc(-c3nc(C4CC4)cnc3N)cc2F)c1 [Example 286, 4-(3-amino-6-cyclo-propylpyrazin-2-yl)-2-fluoro-N-(3-fluoro-5-(methylsulfonyl)benzyl)benzamide] | 3.9 |
| COCCc1cnc(N)c(-c2ccc(C(=O)N[C@H](CO)c3ccccc3)c(F)c2)n1 [Example 112, (S)-4-(3-amino-6-(2-methoxyethyl)pyrazin-2-yl)-2-fluoro-N-(2-hydroxy-1-phenylethyl)benzamide] | 141 |
| C[C@@H](NC(=O)c1ccc(-c2nc(C3CCOCC3)cnc2N)cc1F)c1ccccc1 [Example 47, (R)-4-(3-amino-6-(tetrahydro-2H-pyran-4-yl)pyrazin-2-yl)-2-fluoro-N-(1-phenylethyl)benzamide] | 0.818 |
| Cn1nncc1-c1cnc(N)c(-c2cc(F)c(C(=O)N[C@H](CO)c3cccc(Cl)c3)c(F)c2)c1 [Example 141, (S)-4-(2-amino-5-(1-methyl-1H-1,2,3-triazol-5-yl)pyridin-3-yl)-N-(1-(3-chlorophenyl)-2-hydroxyethyl)-2,6-difluorobenzamide] | 0.183 |
| Nc1ncc(C2CCOCC2)nc1-c1ccc(C(=O)N[C@@H]2CCCN(S(=O)(=O)c3ccccc3)C2)c(F)c1 [Example 49, (R)-4-(3-amino-6-(tetrahydro-2H-pyran-4-yl)pyrazin-2-yl)-2-fluoro-N-(1-(phenylsulfonyl)piperidin-3-yl)benzamide] | 45.9 |
| Nc1ncc(C2CNC(=O)C2)cc1-c1ccc(C(=O)N[C@H](CO)c2ccccc2)c(F)c1 (stereo partly drawn) [Example 218, 4-(2-amino-5-(5-oxopyrrolidin-3-yl)pyridin-3-yl)-2-fluoro-N—((S)-2-hydroxy-1-phenylethyl)benzamide] | 24.2 |
| CS(=O)(=O)c1cccc(CNC(=O)c2ccc(-c3nc(C4CC4)cnc3N)cc2F)c1 [Example 99, 4-(3-amino-6-cyclopropylpyrazin-2-yl)-2-fluoro-N-(3-(methylsulfonyl)benzyl)benzamide] | 12.1 |
| Cn1cc(-c2cnc(N)c(-c3ccc(C(=O)N[C@H](CO)c4ccccc4)c(F)c3)c2)c(C(F)(F)F)n1 [Example 168, (S)-4-(2-amino-5-(1-methyl-3-(trifluoromethyl)-1H-pyrazol-4-yl)pyridin-3-yl)-2-fluoro-N-(2-hydroxy-1-phenylethyl)benzamide] | 5.13 |
| CN(C(=O)c1ccc(-c2nc(C3CCOCC3)cnc2N)cc1F)[C@H](CO)c1ccccc1 [Example 53, (S)-4-(3-amino-6-(tetrahydro-2H-pyran-4-yl)pyrazin-2-yl)-2-fluoro-N-(2-hydroxy-1-phenylethyl)-N-methylbenzamide] | 12.3 |
| Cc1cc(-c2cc(-c3cnnn3C)cnc2N)ccc1C(=O)N[C@H](CO)c1cccc(Cl)c1 [Example 149, (S)-4-(2-amino-5-(1-methyl-1H-1,2,3-triazol-5-yl)pyridin-3-yl)-N-(1-(3-chlorophenyl)-2-hydroxyethyl)-2-methylbenzamide] | 0.149 |

| Compound | IC50 [nM] |
| --- | --- |
| CS(=O)(=O)c1cccc([C@@H](CO)NC(=O)c2ccc(-c3nc(C4CC4)cnc3N)cc2F)c1 [Example 281, (S)-4-(3-amino-6-cyclo-propylpyrazin-2-yl)-2-fluoro-N-(2-hydroxy-1-(3-(methylsulfonyl)phenyl)ethyl) benzamide] | 1.79 |
| Nc1ncc(C2CNC(=O)C2)cc1-c1ccc(C(=O)NCc2ccccc2)c(F)c1 (stereo not shown) [Example 316, 4-(2-amino-5-(5-oxopyrrolidin-3-yl)pyridin-3-yl)-N-benzyl-2-fluorobenzamide] | 330 |
| Cc1cnccc1-c1cnc(N)c(-c2ccc(C(=O)NCc3cccc(S(C)(=O)=O)c3)cc2)n1 [Example 139, 4-(3-amino-6-(3-methylpyridin-4-yl)pyrazin-2-yl)-N-(3-(methylsulfonyl)benzyl)benzamide] | 7.95 |
| CC(=O)N1CCC(c2cnc(N)c(-c3ccc(C(=O)N[C@H](CO)c4cccc(Cl)c4)c(F)c3)n2)CC1 [Example 61, (S)-4-(6-(1-acetylpiperidin-4-yl)-3-aminopyrazin-2-yl)-N-(1-(3-chlorophenyl)-2-hydroxyethyl)-2-fluorobenzamide] | 1.24 |
| CN(Cc1ncccn1)C(=O)c1ccc(-c2cc(C3CCOCC3)cnc2N)cc1F [Example 3, 4-(2-amino-5-(tetrahydro-2H-pyran-4-yl)pyridin-3-yl)-2-fluoro-N-methyl-N-(pyrimidin-2-ylmethyl)benzamide] | 12300 |
| C[C@@H](NC(=O)c1ccc(-c2nc([C@H]3CC[C@H](O)CC3)cnc2N)cc1F)c1cc(F)cc(S(C)(=O)=O)c1 [Example 419, 4-(3-amino-6-((1r,4R)-4-hydroxy-cyclohexyl)pyrazin-2-yl)-2-fluoro-N-((R)-1-(3-fluoro-5-(methylsulfonyl)phenyl)ethyl) benzamide] | 0.853 |
| NC(=O)c1ccc(-c2nc(C3CCOCC3)cnc2N)cc1F [Example 319, 4-(3-amino-6-(tetrahydro-2H-pyran-4-yl)pyrazin-2-yl)-2-fluorobenzamide] | 151 |
| CS(=O)(=O)N1CCCC(c2cnc(N)c(-c3ccc(C(=O)N[C@H](CO)c4ccccc4)c(F)c3)n2)C1 (stereo partly drawn) [Example 213, 4-(3-amino-6-(1-(methylsulfonyl)piperidin-3-yl)pyrazin-2-yl)-2-fluoro-N—((S)-2-hydroxy-1-phenylethyl)benzamide] | 11.9 |
| CC(C)n1cc(-c2cnc(N)c(-c3ccc(C(=O)N[C@H](CO)c4cccc(F)c4)c(F)c3)c2)cn1 [Example 292, (S)-4-(2-amino-5-(1-isopropyl-1H-pyrazol-4-yl)pyridin-3-yl)-2-fluoro-N-(1-(3-fluorophenyl)-2-hydroxyethyl) benzamide] | 2.82 |
| CO[C@@H]1CCC[C@H](c2cnc(N)c(-c3ccc(C(=O)NCc4ccccc4)c(F)c3)n2)C1 (racemic) [Example 124, (+/−)-cis-4-(3-amino-6-(3-methoxycyclohexyl)pyrazin-2-yl)-N-benzyl-2-fluorobenzamide] | 62.6 |
| CCn1cc(-c2cnc(N)c(-c3ccc(C(=O)N[C@H](CO)c4ccccc4)c(F)c3)c2)cn1 [Example 314, (S)-4-(2-amino-5-(1-ethyl-1H-pyrazol-4-yl)pyridin-3-yl)-2-fluoro-N-(2-hydroxy-1-phenylethyl) benzamide] | 1.48 |
| COC(=O)N1CCC(c2cnc(N)c(-c3ccc(C(=O)N[C@H](CO)c4cccc(Cl)c4)c(F)c3)n2)CC1 [Example 59, (S)-methyl 4-(5-amino-6-(4-((1-(3-chlorophenyl)-2-hydroxyethyl)carbamoyl)-3-fluorophenyl)pyrazin-2-yl)piperidine-1-carboxylate] | 0.35 |
| Nc1ncc(C2CCOCC2)nc1-c1ccc(C(=O)N[C@@H]2CCCN(Cc3ccccc3F)C2)c(F)c1 [Example 126, (R)-4-(3-amino-6-(tetrahydro-2H-pyran-4-yl)pyrazin-2-yl)-2-fluoro-N-(1-(2-fluorobenzyl)piperidin-3-yl)benzamide] | 169 |
| Cc1c(-c2cnc(N)c(-c3ccc(C(=O)N[C@H](CO)c4ccccc4)c(F)c3)n2)cnn1C [Example 247, (S)-4-(3-amino-6-(1,5-dimethyl-1H-pyrazol-4-yl)pyrazin-2-yl)-2-fluoro-N-(2-hydroxy-1-phenylethyl) benzamide] | 0.73 |
| Cc1oncc1-c1cnc(N)c(-c2ccc(C(=O)N[C@H](CO)c3ccccc3)c(F)c2)c1 [Example 158, (S)-4-(2-amino-5-(5-methylisoxazol-4-yl)pyridin-3-yl)-2-fluoro-N-(2-hydroxy-1-phenylethyl)benzamide] | 0.634 |
